Here are results for 25 compounds from US5496834A, “Lactol derivatives, their production and use” (Takeda Chemical Industries, Ltd., priority 1993, dated 1996).

Data set [1] deals with T1, human cathepsin L (Homo sapiens, UniProt P07711).
T1 construct: made in house
The data set is described as follows: human cathepsin L inhibitory action. Format: biochemical. Conditions: recombinant human cathepsin L, substrate Z-Phe-Arg-NMec, pH 5.5, 30° C., 10 minutes. On the procedure: The recombinant human cathepsin L obtained by the procedure described in Example 8 of the specification of EPC 931098792 (European Publication No. 0576953 A2) (which is incorporated herein by reference) was diluted to 1 μg/ml with a diluent (0.1% Brij35, Sigma). This diluted enzyme solution was admixed with 46 μl of said diluent, 2 μl of 0.1M DTT and 25 μl of an activator/buffer (340 mM sodium acetate, 60 mM acetic acid, 4 mM EDTA disodium, pH 5.5). Then, 1 μl of a solution of the test compound in dimethyl sulfoxide (DMSO) (10 ^-2 M) and 25 μl of 20 μM Z-phe-Arg-NMec (substrate solution) were added. The mixture was incubated at 30° C. for 10 minutes, after which 100 μl of a reaction stopper (100 mM sodium monochloroacetate, 30 mM sodium acetate, pH 4.3) was added. This reaction was carried out on a 96-well Fluoroplate (Labosystems).
After termination of the reaction, the intensity of fluorescence of liberated aminomethylcoumarin at 450 nm was measured at an excitation wavelength of 365 nm. As a blank experiment, 1 μl of DMSO not containing the test compound was added and the intensity of fluorescence after the reaction was taken as 100% activity. For a sample showing a residual activity of 10% or less, a further diluted solution was used to determine the residual activity by the same procedure as above. Then, IC50 values were calculated.

Data set [2] deals with bone (antebrachial bones: radii, cubiti). The data set is described as follows: bone resorption inhibitory action (45Ca release from cultured fetal rat bones). Format: cell-based, Sprague-Dawley rat. Particulars: 48 h, 2 days culture, mean of 5 bone pieces, lower = stronger inhibition, read-out: Bone resorption Inhibitory Activity [45Ca release (Percent to control)]; for activity at 10 µM: concentration 10 μM, p<0.05, p<0.01, ***, p<0.001 vs. control; for activity at 30 µM: concentration 30 μM, p<0.05, p<0.01 vs. control. On the procedure:
Bone resorption inhibitory activity was assayed by the method of Raisz [J. Clin. Invest. 44, 103-116 (1965) which is incorporated herein by reference]. Thus, a Sprague-Dawley rat on day 18 of gestation was subcutaneously dosed with 50 μCi of ^45 Ca (an isotope of calcium, dissolved in CaCl2). The following day, the abdomen was opened and the fetuses were aseptically extracted. Under the dissecting microscope, the bilateral antebrachial bones (radii, cubiti) were separated from the carcass and the connective tissues and cartilages were removed as far as possible to prepare bone culture specimens. Each of these bone specimens was put in 0.6 ml of BGJb medium (Fitton-Jackson modification; GIBCO Laboratories, USA) supplemented with bovine serum albumin (final concentration 2 mg/ml) and incubated at 37° C. for 24 hours. This bone was further cultured in the same medium containing the test compound (final concentration 10 μM or 30 μM) for 2 days. The percent ratio (%) of ^45 Ca released from the bone to the medium was calculated from the radioactivity count in the medium and that in the bone by means of the following equation. [formula]
As a control group, the bones from a fetus of the same litter were similarly cultured for 2 days. The mean ± standard deviation was calculated for 5 bone pieces per group and the percentage (%) of this value relative to the value of the control group was calculated.

In data set [3] the test system is mice. The data set is described as follows: oral toxicity in mice. Format: in vivo. Conditions: 500 mg/kg. From the text:
Moreover, its toxic potential is low. […] Therefore, the compound (Ia) or (Ib) of this invention can be used in the prophylaxis and therapy of osteoporosis in mammalian animals (e.g. mouse, rat, rabbit, dog, cat, cattle, swine and man).

The test system of data set [4] is cathepsin L. Particulars: reported as one of their inhibition activities; cited from earlier work.

Structures are written as SMILES. Numbered stars: 1 amine (or outer) side, 2 acyl side, 3 side chain; on linkers, the order of the positions; unused ones are H or OH. Peptide text beside a SMILES is read from it. CO = O=C([*:1])[*:2]

T1 sequence (P07711 114-333): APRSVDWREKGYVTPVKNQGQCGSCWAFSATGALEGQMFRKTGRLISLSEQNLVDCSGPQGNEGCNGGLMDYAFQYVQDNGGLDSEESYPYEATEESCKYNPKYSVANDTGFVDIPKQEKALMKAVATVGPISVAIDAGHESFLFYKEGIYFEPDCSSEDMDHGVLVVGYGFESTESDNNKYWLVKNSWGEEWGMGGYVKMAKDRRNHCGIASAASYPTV

With `CC(C)(C)OC(=O)N[C@@H](Cc1ccccc1)C(=O)N[C@H]1CCOC1O` (stereo partly drawn) [Example 1, (3S)-3-[[N-tert-butoxycarbonyl-(L)-phenylalanyl]amino]-2-hydroxytetrahydrofuran], in data set [1], the IC50 was found to be 30 nM.

As for `CC[C@H](C)[C@H](NS(=O)(=O)c1cccc2ccccc12)C(=O)N[C@H]1CCOC1O` (stereo partly drawn) [Example 4], the IC50 in data set [1] was determined as 57 nM.

On to `O=C(N[C@@H](Cc1ccccc1)C(=O)N[C@H]1CCOC1O)OCc1ccccc1` (stereo partly drawn) [Example 5], for which, in data set [1], the 50% inhibitory concentration (IC50) was found to be 8 nM.

For `CC(C)[C@H](NC(=O)OCc1ccccc1)C(=O)N[C@H]1CCOC1O` (stereo partly drawn) [Example 6], the IC50 in data set [1] was 30 nM. Turning to `CCCC(CCC)C(=O)N[C@H](C(=O)N[C@H]1CCOC1O)C(C)C` (stereo partly drawn) [Example 12], in data set [2], the activity at 10 µM is 64%. In data set [1], the half-maximal inhibitory concentration (IC50) was found to be 32 nM.

As for `O=C(COc1ccccc1)N[C@@H](Cc1ccccc1)C(=O)N[C@H]1CCOC1O` (stereo partly drawn) [Example 14], the IC50 in data set [1] was 9.4 nM.

Take `CC(C)C[C@H](NC(=O)OCc1ccccc1)C(=O)N[C@H]1CCOC1O` (stereo partly drawn) [Example 15]: in data set [2], the activity at 10 µM is 26%.

`CC(C)C[C@H](NC(=O)OCc1ccccc1)C(=O)N[C@@H](CC(C)C)C(=O)N[C@H]1CCOC1O` (stereo partly drawn) [Example 16]: in data set [2], the activity at 10 µM was determined as 77%. Regarding `CC(C)C[C@H](NC(=O)Nc1cccc2ccccc12)C(=O)N[C@H]1CCOC1O` (stereo partly drawn) [Example 17], the IC50 in data set [1] came to 6.9 nM. Regarding `CC(C)C[C@H](NC(=S)Nc1cccc2ccccc12)C(=O)N[C@H]1CCOC1O` (stereo partly drawn) [Example 21], in data set [2], the activity at 10 µM was determined as 67%. `O=C(N[C@@H](Cc1ccccc1)C(=O)N[C@H]1CCCOC1O)OCc1ccccc1` (stereo partly drawn) [Example 23]: in data set [1], the concentration for half-maximal inhibition (IC50) stood at 28 nM. Consider `CC(=O)OC1OCC[C@@H]1NC(=O)[C@@H](NC(=O)OCc1ccccc1)C(C)C` (stereo partly drawn) [Example 25, (3S)-2-acetoxy-3-[[N-benzyloxycarbonyl-(L)-valyl]amino]tetrahydrofuran], for which the activity at 10 µM in data set [2] came to 75%. Further, in data set [1], the half-maximal inhibitory concentration (IC50) stood at 450 nM. As to `CC(=O)O[C@@H]1OCC[C@@H]1NC(=O)[C@H](CC(C)C)NC(=O)Nc1cccc2ccccc12` [Example 29, (2S,3S)-2-acetoxy-3-[[N-(1-naphthylcarbamoyl)-(L)-leucyl]amino]-tetrahydrofuran], the activity at 30 µM in data set [2] came out at 67%. Turning to `CC(C)C[C@H](NC(=O)Nc1cccc2ccccc12)C(=O)NC1CCOC1O` (stereo partly drawn) [Example 32, 2-hydroxy-3-[[N-(1-naphthylcarbamoyl)-(L)-leucyl]amino]tetrahydrofuran], the activity at 30 µM in data set [2] was 77%. For the compound `CC(C)C[C@H](NS(=O)(=O)c1cccc2ccccc12)C(=O)N[C@H]1CCCOC1O` (stereo partly drawn) [Example 35, (3S)-2-hydroxy-3-[[N-(1-naphthalenesulfonyl)-(L)-leucyl]amino]tetrahydropyran], the activity at 10 µM in data set [2] amounted to 82%. As for `CC(C)C[C@H](NC(=O)OCc1ccccc1)C(=O)N[C@@H](CC(C)C)C(=O)N[C@H]1CCCOC1O` (stereo partly drawn) [Example 38], the IC50 in data set [1] was 52 nM. `CCOP(=O)(Cc1ccc(C(=O)N[C@@H](CC(C)C)C(=O)N[C@H]2CCOC2O)cc1)OCC` (stereo partly drawn) [Example 42]: the IC50 in data set [1] is 29 nM. `CCCC(CCC)C(=O)N[C@H](C(=O)N[C@H]1CCO[C@H]1OC(C)=O)C(C)C` [Example 60]: in data set [3], the “deaths after oral administration” value is “killed no test animals”.

Consider `CC(=O)O[C@@H]1OCC[C@@H]1NC(=O)[C@H](CC(C)C)NC(=O)c1cccnc1` [Example 62], for which, in data set [1], the IC50 was determined as 870 nM.

As to `CC(=O)O[C@@H]1OCC[C@@H]1NC(=O)[C@H](CC(C)C)NC(=O)c1ccccn1` [Example 64], the IC50 in data set [1] was found to be 690 nM. Consider `CCCC(CCC)C(=O)N[C@H](C(=O)N[C@H]1CCO[C@@H]1OC)C(C)C` [Example 73, (2S,3S)-2-methoxy-3-[[N-valproyl-(L)-valyl]amino]tetrahydrofuran], for which, in data set [2], the activity at 10 µM turned out to be 79%. `COC(=O)C[C@H](NC(=O)OCc1ccccc1)C(=O)N[C@H]1CCOC1OC` (stereo partly drawn) [Example 74, (3S)-3-[[N-benzyloxycarbonyl-(L)-(3-methoxycarbonyl)alanyl]amino] -2-methoxytetrahydrofuran]: in data set [2], the activity at 10 µM came out at 78%. As to `COC1OCC[C@@H]1NC(=O)[C@H](CC(C)C)NC(=O)Nc1cccc2ccccc12` (stereo partly drawn) [Example 89, (3S)-2-methoxy-3-[[N-(1-naphthylcarbamoyl)-(L)-leucyl]amino]-tetrahydrofuran], the IC50 in data set [1] worked out at 190 nM. For the compound `CC(C)[C@H](NC(=O)[C@H](CCCNC(=N)N)NC(=O)N[C@@H](Cc1ccccc1)C(=O)O)C(=O)N[C@H](C=O)CCCNC(=N)N` [antipain] ({Phe-CO}-Arg-Val-Arg-aldehyde), in data set [4], the “cathepsin L inhibitory activity” value is “cathepsin L inhibitory activity”. For the compound `CC(=O)N[C@@H](CC(C)C)C(=O)N[C@@H](CC(C)C)C(=O)N[C@H](C=O)CCCNC(=N)N` [leupeptin], in data set [4], the “cathepsin L inhibitory activity” value is reported as “cathepsin L inhibitory activity”.
